{"source": "patent US20090105270A1", "about": "“Kinase inhibition and anticancer therapy” (priority 2007, published 2009)", "key": {"WNK2(h)": {"molecular_target": "T1, WNK2(h) (Homo sapiens, UniProt Q9Y3S1)", "T1 construct": "purchased Upstate (KinaseProfiler service)", "T1 sequence (Q9Y3S1 whole entry)": "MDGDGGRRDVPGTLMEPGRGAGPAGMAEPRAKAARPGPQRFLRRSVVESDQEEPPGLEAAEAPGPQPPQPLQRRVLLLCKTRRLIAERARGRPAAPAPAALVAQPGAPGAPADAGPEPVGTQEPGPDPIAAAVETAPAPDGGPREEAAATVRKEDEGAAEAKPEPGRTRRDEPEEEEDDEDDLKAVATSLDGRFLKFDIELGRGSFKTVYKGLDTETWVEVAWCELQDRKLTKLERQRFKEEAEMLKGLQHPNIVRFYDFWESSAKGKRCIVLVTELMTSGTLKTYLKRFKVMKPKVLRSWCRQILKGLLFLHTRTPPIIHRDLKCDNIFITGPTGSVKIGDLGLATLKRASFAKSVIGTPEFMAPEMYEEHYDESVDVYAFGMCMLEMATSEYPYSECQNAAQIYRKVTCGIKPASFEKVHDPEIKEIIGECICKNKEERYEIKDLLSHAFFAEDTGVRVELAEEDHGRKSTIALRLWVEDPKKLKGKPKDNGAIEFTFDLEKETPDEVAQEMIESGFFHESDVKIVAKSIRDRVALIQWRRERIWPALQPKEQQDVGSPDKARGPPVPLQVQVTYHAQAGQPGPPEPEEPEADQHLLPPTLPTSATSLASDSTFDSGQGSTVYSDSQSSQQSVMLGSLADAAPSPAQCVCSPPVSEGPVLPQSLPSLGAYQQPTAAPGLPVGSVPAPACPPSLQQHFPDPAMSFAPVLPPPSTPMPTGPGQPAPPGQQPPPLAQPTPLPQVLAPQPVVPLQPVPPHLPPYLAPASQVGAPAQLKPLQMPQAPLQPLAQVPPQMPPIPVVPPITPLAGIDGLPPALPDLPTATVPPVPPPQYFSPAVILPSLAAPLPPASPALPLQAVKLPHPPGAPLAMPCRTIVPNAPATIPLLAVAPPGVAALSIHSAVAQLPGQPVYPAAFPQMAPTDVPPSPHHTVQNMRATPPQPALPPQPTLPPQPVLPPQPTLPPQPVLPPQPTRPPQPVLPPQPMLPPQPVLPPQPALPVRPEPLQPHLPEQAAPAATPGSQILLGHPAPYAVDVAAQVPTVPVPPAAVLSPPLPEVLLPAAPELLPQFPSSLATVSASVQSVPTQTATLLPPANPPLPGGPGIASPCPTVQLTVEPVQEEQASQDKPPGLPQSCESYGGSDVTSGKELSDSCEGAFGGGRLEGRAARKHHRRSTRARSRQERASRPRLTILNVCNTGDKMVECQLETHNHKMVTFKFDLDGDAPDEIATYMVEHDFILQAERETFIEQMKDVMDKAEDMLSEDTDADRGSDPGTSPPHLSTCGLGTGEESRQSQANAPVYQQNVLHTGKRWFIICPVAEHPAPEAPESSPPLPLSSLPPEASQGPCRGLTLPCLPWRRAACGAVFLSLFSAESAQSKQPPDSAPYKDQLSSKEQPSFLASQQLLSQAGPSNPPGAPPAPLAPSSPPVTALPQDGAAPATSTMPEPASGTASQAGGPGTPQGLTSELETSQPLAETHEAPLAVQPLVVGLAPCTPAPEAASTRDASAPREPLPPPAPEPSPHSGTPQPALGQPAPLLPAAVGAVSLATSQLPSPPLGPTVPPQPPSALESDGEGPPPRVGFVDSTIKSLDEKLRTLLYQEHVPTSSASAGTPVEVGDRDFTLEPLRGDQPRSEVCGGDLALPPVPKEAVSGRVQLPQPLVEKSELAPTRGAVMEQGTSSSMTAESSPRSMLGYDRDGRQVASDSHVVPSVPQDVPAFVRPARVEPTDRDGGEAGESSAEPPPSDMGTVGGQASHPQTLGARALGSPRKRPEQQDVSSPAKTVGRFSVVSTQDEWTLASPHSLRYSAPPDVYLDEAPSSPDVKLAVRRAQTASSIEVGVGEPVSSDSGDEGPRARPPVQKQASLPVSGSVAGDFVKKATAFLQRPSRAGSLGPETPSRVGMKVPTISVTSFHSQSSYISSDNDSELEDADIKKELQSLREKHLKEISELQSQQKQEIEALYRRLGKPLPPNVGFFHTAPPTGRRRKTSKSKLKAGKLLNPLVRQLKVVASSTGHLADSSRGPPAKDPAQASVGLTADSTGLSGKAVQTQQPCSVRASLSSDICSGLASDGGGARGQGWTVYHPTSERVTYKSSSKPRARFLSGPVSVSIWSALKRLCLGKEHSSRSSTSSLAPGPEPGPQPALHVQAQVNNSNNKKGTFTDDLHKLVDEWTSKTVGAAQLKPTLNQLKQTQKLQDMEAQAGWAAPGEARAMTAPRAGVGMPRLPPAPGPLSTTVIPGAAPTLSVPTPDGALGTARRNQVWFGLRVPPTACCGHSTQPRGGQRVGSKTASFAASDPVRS", "assay": "Upstate kinase activity inhibition assay WNK2(h)", "format": "biochemical", "settings": "40 min; read-out: percentage of enzyme activity that remains"}, "Fgr(h)": {"molecular_target": "Fgr(h) (Homo sapiens, UniProt P09769)", "sequence (P09769 whole entry)": "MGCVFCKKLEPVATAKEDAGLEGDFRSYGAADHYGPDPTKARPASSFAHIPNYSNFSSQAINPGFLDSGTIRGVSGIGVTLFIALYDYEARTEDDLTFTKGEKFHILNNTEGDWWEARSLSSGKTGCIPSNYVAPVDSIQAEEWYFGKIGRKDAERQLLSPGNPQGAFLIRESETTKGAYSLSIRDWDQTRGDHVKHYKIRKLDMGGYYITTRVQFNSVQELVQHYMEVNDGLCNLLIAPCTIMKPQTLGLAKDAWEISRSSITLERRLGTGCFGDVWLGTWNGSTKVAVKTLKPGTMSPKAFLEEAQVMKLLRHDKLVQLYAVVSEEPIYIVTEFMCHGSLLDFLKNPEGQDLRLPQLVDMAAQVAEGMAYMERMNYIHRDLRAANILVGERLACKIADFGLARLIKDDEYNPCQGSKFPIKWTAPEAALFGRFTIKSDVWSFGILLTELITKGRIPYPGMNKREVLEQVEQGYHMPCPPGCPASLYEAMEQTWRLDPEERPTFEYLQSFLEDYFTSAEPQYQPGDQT", "assay": "Upstate kinase activity inhibition assay Fgr(h)", "settings": "40 min, read-out: percentage of enzyme activity that remains"}}, "data": [{"smiles": "Cc1cc(Nc2cc(N3CCN(C)CC3)nc(Sc3ccc(NC(=O)C4CC4)cc3)n2)n[nH]1", "note": "[Compound E, Cyclopropane carboxylic acid {4-[4-(4-methyl-piperazin-1-yl)-6-(5-methyl-2H-pyrazol-3-ylamino)-pyrimidin-2-ylsulphanyl]-phenyl}-amide]", "values": [{"measurement": "remaining activity at 0.2 µM", "setting": "WNK2(h)", "value": 107, "unit": "%"}, {"measurement": "remaining activity at 4 µM", "setting": "WNK2(h)", "value": 90, "unit": "%"}, {"measurement": "remaining activity at 0.2 µM", "setting": "Fgr(h)", "value": 71, "unit": "%"}, {"measurement": "remaining activity at 4 µM", "setting": "Fgr(h)", "value": 12, "unit": "%"}]}]}
